In PMC7407272, “Induction of Lysosome Membrane Permeabilization as a Therapeutic Strategy to Target Pancreatic Cancer Stem Cells” (Cancers, 2020):

Experiments:
[1] = test system: re-plated PDAC2 spheres; test: Acridine orange lysosomal integrity assay; type: cell-based, human
Experimental: Cells were analyzed with a 4-laser Attune NxT Acoustic Cytometer (ThermoFisher Scientific). […] Autofluorescent cells were excited with blue laser 488nm and selected as the intersection with the filters 530/40 and 580/30 as previously described. For lysosomes quantification, Acridine Orange (AO) (A1301, Thermo Fisher Scientific, Waltham, MA, USA) or Lysotracker Deep Red (DR) (L12492, Molecular probes, Life Technologies, Waltham, MA, USA) were used. […] Bafilomycin A1 (100 nM, Calbiochem, San Diego, CA, USA) was included as a positive control for lysosome disruption. For Annexin V staining, floating and attached cells were pooled and resuspended in 1× AnnexinV staining buffer containing AnnexinV-APC diluted 1:20 (Biotium, Freemont, CA, USA) and incubated for 20 min at room temperature prior to flow cytometric analysis. For all assays, DAPI was used to mark and exclude dead cells, and data were analyzed using the software FlowJo v9.3 (Tree Star Inc., Ashland, OR, USA).
Re-plated spheres were loaded with 1 µg/mL acridine orange (A1301, Thermo Fisher Scientific) for 15 min then washed 3 times with PBS. […]

[2] = molecular target: T1, AAK1 (Homo sapiens, UniProt Q2M2I8); test: KINOMEscan; type: binding; settings: read-out: % Ctrl
T1 construct: purchased DiscoveRx KINOMEscan

[3] = molecular target: T2, PDGFRA (Homo sapiens, UniProt P16234); test: KINOMEscan; type: binding; settings: read-out: % Ctrl
T2 construct: purchased DiscoveRx KINOMEscan

[4] = molecular target: T3, PHKG1 (Homo sapiens, UniProt Q16816); test: KINOMEscan; type: binding; settings: read-out: % Ctrl
T3 construct: purchased DiscoveRx KINOMEscan

[5] = molecular target: T4, PIK3C2B (Homo sapiens, UniProt O00750); test: KINOMEscan; type: binding; settings: read-out: % Ctrl
T4 construct: purchased DiscoveRx KINOMEscan

[6] = molecular target: T5, ABL1-nonP (Homo sapiens, UniProt P00519); test: KINOMEscan; type: binding; settings: read-out: % Ctrl
T5 construct: purchased DiscoveRx KINOMEscan

[7] = molecular target: T6, PIK3CG (Homo sapiens, UniProt P48736); test: KINOMEscan; type: binding; settings: read-out: % Ctrl
T6 construct: purchased DiscoveRx KINOMEscan

[8] = molecular target: T7, GRK2 (Homo sapiens, UniProt P25098); test: KINOMEscan; type: binding; settings: read-out: % Ctrl
T7 construct: purchased DiscoveRx KINOMEscan

[9] = molecular target: T8, ASK1 (Homo sapiens, UniProt Q99683); test: KINOMEscan; type: binding; settings: read-out: % Ctrl
T8 construct: purchased DiscoveRx KINOMEscan

[10] = molecular target: T9, PKAC-alpha (Homo sapiens, UniProt P17612); test: KINOMEscan; type: binding; settings: read-out: % Ctrl
T9 construct: purchased DiscoveRx KINOMEscan

[11] = molecular target: T10, PLK1 (Homo sapiens, UniProt P53350); test: KINOMEscan; type: binding; settings: read-out: % Ctrl
T10 construct: purchased DiscoveRx KINOMEscan

[12] = molecular target: T11, PRKR (Homo sapiens, UniProt P19525); test: KINOMEscan; type: binding; settings: read-out: % Ctrl
T11 construct: purchased DiscoveRx KINOMEscan

[13] = molecular target: T12, LATS1 (Homo sapiens, UniProt O95835); test: KINOMEscan; type: binding; settings: read-out: % Ctrl
T12 construct: purchased DiscoveRx KINOMEscan

[14] = molecular target: T13, CDK2 (Homo sapiens, UniProt P24941); test: KINOMEscan; type: binding; settings: read-out: % Ctrl
T13 construct: purchased DiscoveRx KINOMEscan

[15] = molecular target: T14, ROCK2 (Homo sapiens, UniProt O75116); test: KINOMEscan; type: binding; settings: read-out: % Ctrl
T14 construct: purchased DiscoveRx KINOMEscan

[16] = molecular target: T15, RPS6KA5(KD2-C-t.) (Homo sapiens, UniProt O75582); test: KINOMEscan; type: binding; settings: read-out: % Ctrl
T15 construct: RPS6KA5(KD2-C-t.); purchased DiscoveRx KINOMEscan

[17] = molecular target: T16, CHEK1 (Homo sapiens, UniProt O14757); test: KINOMEscan; type: binding; settings: read-out: % Ctrl
T16 construct: purchased DiscoveRx KINOMEscan

[18] = molecular target: T17, RSK3(KD1-N-t.) (Homo sapiens, UniProt Q15349); test: KINOMEscan; type: binding; settings: read-out: % Ctrl
T17 construct: RSK3(KD1-N-t.); purchased DiscoveRx KINOMEscan

[19] = molecular target: T18, CLK1 (Homo sapiens, UniProt P49759); test: KINOMEscan; type: binding; settings: read-out: % Ctrl
T18 construct: purchased DiscoveRx KINOMEscan

[20] = molecular target: T19, CLK4 (Homo sapiens, UniProt Q9HAZ1); test: KINOMEscan; type: binding; settings: read-out: % Ctrl
T19 construct: purchased DiscoveRx KINOMEscan

[21] = molecular target: T20, SgK110 (Homo sapiens, UniProt P0C264); test: KINOMEscan; type: binding; settings: read-out: % Ctrl
T20 construct: purchased DiscoveRx KINOMEscan

[22] = molecular target: T21, SIK2 (Homo sapiens, UniProt Q9H0K1); test: KINOMEscan; type: binding; settings: read-out: % Ctrl
T21 construct: purchased DiscoveRx KINOMEscan

[23] = molecular target: T22, MEK4 (Homo sapiens, UniProt P45985); test: KINOMEscan; type: binding; settings: read-out: % Ctrl
T22 construct: purchased DiscoveRx KINOMEscan

[24] = molecular target: T23, CSNK2A1 (Homo sapiens, UniProt P68400); test: KINOMEscan; type: binding; settings: read-out: % Ctrl
T23 construct: purchased DiscoveRx KINOMEscan

[25] = molecular target: T24, SRPK2 (Homo sapiens, UniProt P78362); test: KINOMEscan; type: binding; settings: read-out: % Ctrl
T24 construct: purchased DiscoveRx KINOMEscan

[26] = molecular target: T25, STK36 (Homo sapiens, UniProt Q9NRP7); test: KINOMEscan; type: binding; settings: read-out: % Ctrl
T25 construct: purchased DiscoveRx KINOMEscan

[27] = molecular target: T26, DYRK1A (Homo sapiens, UniProt Q13627); test: KINOMEscan; type: binding; settings: read-out: % Ctrl
T26 construct: purchased DiscoveRx KINOMEscan

[28] = molecular target: T27, EIF2AK1 (Homo sapiens, UniProt Q9BQI3); test: KINOMEscan; type: binding; settings: read-out: % Ctrl
T27 construct: purchased DiscoveRx KINOMEscan

[29] = molecular target: T28, EPHA3 (Homo sapiens, UniProt P29320); test: KINOMEscan; type: binding; settings: read-out: % Ctrl
T28 construct: purchased DiscoveRx KINOMEscan

[30] = molecular target: T29, NEK6 (Homo sapiens, UniProt Q9HC98); test: KINOMEscan; type: binding; settings: read-out: % Ctrl
T29 construct: purchased DiscoveRx KINOMEscan

[31] = molecular target: T30, EPHB2 (Homo sapiens, UniProt P29323); test: KINOMEscan; type: binding; settings: read-out: % Ctrl
T30 construct: purchased DiscoveRx KINOMEscan

[32] = molecular target: T31, VPS34 (Homo sapiens, UniProt Q8NEB9); test: KINOMEscan; type: binding; settings: read-out: % Ctrl
T31 construct: purchased DiscoveRx KINOMEscan

[33] = molecular target: T32, VRK2 (Homo sapiens, UniProt Q86Y07); test: KINOMEscan; type: binding; settings: read-out: % Ctrl
T32 construct: purchased DiscoveRx KINOMEscan

[34] = molecular target: T33, p38-alpha (Homo sapiens, UniProt Q16539); test: KINOMEscan; type: binding; settings: read-out: % Ctrl
T33 construct: purchased DiscoveRx KINOMEscan

[35] = molecular target: T34, WNK2 (Homo sapiens, UniProt Q9Y3S1); test: KINOMEscan; type: binding; settings: read-out: % Ctrl
T34 construct: purchased DiscoveRx KINOMEscan

[36] = molecular target: T35, PAK6 (Homo sapiens, UniProt Q9NQU5); test: KINOMEscan; type: binding; settings: read-out: % Ctrl
T35 construct: purchased DiscoveRx KINOMEscan

[37] = molecular target: T36, ZAK (Homo sapiens, UniProt Q9NYL2); test: KINOMEscan; type: binding; settings: read-out: % Ctrl
T36 construct: purchased DiscoveRx KINOMEscan

T17 sequence (Q15349 1-388 limits assumed): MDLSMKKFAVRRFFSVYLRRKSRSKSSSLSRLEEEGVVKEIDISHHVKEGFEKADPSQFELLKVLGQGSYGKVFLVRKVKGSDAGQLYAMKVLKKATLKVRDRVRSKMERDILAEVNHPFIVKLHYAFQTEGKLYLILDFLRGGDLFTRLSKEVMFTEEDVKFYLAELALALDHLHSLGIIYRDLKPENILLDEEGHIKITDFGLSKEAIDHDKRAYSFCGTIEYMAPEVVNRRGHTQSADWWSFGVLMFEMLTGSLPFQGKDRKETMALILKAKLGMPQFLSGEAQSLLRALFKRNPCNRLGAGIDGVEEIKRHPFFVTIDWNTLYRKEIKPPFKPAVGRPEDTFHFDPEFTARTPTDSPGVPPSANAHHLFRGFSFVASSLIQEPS
T7 sequence (P25098 whole entry): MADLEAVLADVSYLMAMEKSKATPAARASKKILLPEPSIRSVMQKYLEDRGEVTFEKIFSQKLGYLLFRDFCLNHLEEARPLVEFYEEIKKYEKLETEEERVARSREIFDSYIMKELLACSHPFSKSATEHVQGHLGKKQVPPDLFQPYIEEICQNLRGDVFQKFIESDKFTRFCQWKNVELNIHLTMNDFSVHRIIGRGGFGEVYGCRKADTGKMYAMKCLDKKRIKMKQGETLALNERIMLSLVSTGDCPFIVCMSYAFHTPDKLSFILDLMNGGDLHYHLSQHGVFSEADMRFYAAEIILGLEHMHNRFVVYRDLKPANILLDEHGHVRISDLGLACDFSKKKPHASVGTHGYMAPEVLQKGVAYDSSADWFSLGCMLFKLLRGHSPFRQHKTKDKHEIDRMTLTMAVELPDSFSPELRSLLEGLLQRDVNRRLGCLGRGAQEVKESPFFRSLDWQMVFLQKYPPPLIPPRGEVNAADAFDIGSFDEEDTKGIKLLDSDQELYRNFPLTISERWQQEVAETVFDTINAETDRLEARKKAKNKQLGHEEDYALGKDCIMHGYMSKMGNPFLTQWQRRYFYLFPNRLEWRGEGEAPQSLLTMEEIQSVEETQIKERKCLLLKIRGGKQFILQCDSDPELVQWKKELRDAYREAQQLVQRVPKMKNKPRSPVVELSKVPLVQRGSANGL
T29 sequence (Q9HC98 whole entry): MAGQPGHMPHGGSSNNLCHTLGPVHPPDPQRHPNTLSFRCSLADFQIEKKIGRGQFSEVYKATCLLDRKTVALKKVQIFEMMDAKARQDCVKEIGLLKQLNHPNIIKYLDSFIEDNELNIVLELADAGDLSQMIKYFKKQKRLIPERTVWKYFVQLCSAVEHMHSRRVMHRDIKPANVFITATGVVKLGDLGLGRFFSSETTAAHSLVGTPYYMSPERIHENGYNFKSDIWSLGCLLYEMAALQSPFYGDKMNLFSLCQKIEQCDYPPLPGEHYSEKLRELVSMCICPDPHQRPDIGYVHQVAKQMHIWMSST
T20 sequence (P0C264 whole entry): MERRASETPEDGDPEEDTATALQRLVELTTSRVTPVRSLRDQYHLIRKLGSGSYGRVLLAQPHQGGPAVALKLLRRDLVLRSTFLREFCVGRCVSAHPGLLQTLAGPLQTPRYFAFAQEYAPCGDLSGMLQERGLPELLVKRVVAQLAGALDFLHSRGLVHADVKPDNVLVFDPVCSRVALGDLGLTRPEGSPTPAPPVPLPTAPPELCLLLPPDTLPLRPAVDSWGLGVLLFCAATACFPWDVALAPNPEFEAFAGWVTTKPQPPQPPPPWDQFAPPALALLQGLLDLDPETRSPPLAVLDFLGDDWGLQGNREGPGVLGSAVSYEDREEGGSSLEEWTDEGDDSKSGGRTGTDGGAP
T11 sequence (P19525 whole entry): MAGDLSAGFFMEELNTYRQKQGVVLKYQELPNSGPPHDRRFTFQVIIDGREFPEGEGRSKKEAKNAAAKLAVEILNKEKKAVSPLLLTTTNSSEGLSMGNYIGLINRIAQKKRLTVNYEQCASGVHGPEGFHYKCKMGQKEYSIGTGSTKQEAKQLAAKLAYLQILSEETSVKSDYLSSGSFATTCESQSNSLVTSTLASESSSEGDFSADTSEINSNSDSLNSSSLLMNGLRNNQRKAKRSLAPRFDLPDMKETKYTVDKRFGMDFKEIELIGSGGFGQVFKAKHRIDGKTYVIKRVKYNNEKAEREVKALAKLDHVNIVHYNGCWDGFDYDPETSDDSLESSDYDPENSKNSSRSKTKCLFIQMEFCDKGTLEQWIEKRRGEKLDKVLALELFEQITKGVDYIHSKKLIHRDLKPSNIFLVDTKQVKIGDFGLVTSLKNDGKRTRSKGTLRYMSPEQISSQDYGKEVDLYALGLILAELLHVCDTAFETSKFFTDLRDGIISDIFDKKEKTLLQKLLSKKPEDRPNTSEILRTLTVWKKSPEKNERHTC
T1 sequence (Q2M2I8 whole entry): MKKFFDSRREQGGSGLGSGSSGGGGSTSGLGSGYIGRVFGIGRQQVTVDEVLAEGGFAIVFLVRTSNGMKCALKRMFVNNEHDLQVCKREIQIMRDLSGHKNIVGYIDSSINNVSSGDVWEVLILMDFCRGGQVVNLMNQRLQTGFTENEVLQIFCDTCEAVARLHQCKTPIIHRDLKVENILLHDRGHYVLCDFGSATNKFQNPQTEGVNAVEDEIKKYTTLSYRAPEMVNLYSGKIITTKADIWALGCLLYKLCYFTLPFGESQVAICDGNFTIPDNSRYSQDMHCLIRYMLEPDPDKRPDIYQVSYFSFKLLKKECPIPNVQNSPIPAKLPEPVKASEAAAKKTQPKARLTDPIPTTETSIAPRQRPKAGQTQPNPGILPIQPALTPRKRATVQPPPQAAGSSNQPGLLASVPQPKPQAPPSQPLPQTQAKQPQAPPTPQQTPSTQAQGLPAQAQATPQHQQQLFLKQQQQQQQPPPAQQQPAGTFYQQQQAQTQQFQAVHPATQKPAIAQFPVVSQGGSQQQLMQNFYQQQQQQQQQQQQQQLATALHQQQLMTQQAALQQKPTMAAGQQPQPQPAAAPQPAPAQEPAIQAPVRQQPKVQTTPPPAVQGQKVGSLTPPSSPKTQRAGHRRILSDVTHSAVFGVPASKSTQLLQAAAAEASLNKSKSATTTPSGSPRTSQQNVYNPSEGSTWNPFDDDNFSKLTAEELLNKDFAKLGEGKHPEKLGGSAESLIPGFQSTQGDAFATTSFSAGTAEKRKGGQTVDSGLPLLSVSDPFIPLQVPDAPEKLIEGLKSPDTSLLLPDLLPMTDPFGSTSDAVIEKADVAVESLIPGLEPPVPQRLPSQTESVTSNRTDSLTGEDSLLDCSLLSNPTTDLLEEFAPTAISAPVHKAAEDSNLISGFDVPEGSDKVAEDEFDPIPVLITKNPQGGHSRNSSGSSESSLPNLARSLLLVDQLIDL
T2 sequence (P16234 24-1089): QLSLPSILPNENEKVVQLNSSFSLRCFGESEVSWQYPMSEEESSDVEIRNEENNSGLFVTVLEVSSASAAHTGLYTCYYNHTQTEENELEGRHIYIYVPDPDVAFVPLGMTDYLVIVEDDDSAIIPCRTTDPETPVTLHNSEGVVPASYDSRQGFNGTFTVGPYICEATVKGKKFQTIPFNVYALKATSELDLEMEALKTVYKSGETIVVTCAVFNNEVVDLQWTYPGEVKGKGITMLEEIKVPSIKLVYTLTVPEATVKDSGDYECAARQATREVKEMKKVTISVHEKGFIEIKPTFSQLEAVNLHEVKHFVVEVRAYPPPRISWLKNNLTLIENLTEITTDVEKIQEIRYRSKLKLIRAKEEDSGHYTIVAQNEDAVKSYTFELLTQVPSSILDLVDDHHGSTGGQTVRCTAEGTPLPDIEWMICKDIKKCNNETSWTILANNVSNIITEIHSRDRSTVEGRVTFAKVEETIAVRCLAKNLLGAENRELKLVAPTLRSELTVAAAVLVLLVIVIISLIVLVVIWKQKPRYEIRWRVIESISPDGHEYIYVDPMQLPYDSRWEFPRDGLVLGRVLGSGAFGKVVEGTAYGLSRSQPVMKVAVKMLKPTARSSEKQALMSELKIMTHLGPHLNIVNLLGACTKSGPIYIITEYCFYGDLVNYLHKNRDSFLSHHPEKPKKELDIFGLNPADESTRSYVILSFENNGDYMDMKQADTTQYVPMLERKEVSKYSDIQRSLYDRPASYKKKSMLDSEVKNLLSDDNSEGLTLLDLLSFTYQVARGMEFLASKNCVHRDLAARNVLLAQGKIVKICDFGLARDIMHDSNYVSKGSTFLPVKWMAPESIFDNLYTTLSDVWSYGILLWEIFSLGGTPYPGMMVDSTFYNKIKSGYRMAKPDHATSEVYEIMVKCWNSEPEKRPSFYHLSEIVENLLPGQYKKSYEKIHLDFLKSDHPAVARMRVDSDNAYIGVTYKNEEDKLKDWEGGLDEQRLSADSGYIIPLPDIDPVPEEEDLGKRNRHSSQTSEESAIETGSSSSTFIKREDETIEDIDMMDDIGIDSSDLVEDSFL
T24 sequence (P78362 whole entry): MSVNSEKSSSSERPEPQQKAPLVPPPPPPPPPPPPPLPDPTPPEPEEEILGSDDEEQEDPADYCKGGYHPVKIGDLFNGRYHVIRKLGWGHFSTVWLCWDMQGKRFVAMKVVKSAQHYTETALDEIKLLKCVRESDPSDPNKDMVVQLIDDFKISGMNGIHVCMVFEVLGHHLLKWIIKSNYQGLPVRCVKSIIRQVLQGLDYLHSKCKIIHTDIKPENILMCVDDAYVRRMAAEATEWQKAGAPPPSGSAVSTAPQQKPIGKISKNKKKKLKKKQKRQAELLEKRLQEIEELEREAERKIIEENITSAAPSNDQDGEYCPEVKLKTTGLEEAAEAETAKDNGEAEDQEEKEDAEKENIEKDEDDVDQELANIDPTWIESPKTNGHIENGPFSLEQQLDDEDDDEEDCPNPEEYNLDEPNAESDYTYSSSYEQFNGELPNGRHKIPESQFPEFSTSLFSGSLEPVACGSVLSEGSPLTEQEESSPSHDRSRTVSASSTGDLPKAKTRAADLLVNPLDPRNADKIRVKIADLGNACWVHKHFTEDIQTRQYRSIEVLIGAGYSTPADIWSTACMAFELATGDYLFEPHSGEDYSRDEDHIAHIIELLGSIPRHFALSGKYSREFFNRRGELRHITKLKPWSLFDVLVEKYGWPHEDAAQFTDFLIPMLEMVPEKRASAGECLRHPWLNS

CN1CCC(CNc2ccc3ncc(C(=O)Nc4cccc(OC(F)(F)F)c4)n3n2)CC1 [Cpd 2]
Acridine Orange staining (LMP), fluorescence microscopy ([1]; 5 µM, 2 h): greatly reduced lysosomal staining in the far-red channel | AO mean far-red fluorescence intensity (MFI), flow cytometry ([1]; 1.25, 2.5 or 5 µM, 6 h and 24 h): decreasing overall AO mean far-red fluorescence intensity | remaining binding at 1 µM [2]: 89% | remaining binding at 1 µM [3]: 81% | remaining binding at 1 µM [4]: 100% | remaining binding at 1 µM [5]: 48% | remaining binding at 1 µM [6]: 100% | remaining binding at 1 µM [7]: 100% | remaining binding at 1 µM [8]: 79% | remaining binding at 1 µM [9]: 100% | remaining binding at 1 µM [10]: 99% | remaining binding at 1 µM [11]: 98% | remaining binding at 1 µM [12]: 83% | remaining binding at 1 µM [13]: 100% | remaining binding at 1 µM [14]: 100% | remaining binding at 1 µM [15]: 94% | remaining binding at 1 µM [16]: 92% | remaining binding at 1 µM [17]: 86% | remaining binding at 1 µM [18]: 93% | remaining binding at 1 µM [19]: 100% | remaining binding at 1 µM [20]: 100% | remaining binding at 1 µM [21]: 72% | remaining binding at 1 µM [22]: 97% | remaining binding at 1 µM [23]: 100% | remaining binding at 1 µM [24]: 98% | remaining binding at 1 µM [25]: 94% | remaining binding at 1 µM [26]: 100% | remaining binding at 1 µM [27]: 100% | remaining binding at 1 µM [28]: 95% | remaining binding at 1 µM [29]: 92% | remaining binding at 1 µM [30]: 100% | remaining binding at 1 µM [31]: 95% | remaining binding at 1 µM [32]: 75% | remaining binding at 1 µM [33]: 100% | remaining binding at 1 µM [34]: 96% | remaining binding at 1 µM [35]: 77% | remaining binding at 1 µM [36]: 98% | remaining binding at 1 µM [37]: 96%
